Measured values: publication PMC2883171 (Organic & biomolecular chemistry, 2008)

T1: soybean lipoxygenase-1 (sLO-1) (Glycine max, UniProt P08170)
T1 sequence (P08170 1-839): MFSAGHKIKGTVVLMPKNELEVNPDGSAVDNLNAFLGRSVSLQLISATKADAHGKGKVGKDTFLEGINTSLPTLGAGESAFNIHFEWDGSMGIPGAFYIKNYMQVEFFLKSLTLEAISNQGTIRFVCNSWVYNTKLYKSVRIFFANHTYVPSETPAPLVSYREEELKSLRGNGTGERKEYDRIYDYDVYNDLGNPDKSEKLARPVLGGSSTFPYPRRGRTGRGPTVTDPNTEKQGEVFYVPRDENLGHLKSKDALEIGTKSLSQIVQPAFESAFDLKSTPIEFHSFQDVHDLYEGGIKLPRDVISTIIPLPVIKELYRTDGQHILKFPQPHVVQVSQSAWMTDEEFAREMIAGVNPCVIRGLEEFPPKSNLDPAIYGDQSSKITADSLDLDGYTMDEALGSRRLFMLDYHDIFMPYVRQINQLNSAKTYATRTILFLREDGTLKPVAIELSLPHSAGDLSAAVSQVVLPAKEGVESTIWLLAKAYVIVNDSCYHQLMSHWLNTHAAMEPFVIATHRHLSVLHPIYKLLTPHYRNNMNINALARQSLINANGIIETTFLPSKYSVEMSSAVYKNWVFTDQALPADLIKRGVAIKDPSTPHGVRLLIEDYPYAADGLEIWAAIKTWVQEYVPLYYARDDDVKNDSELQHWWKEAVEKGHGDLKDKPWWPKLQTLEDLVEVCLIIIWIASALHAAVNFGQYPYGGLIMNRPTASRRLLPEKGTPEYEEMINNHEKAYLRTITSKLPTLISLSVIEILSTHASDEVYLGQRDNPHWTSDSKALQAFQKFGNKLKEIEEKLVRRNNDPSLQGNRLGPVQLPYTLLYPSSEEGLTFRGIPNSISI

T2: human reticulocyte 15-lipoxygenase-1 (15-hLO-1) (Homo sapiens, UniProt P16050)
T2 sequence (P16050 1-662): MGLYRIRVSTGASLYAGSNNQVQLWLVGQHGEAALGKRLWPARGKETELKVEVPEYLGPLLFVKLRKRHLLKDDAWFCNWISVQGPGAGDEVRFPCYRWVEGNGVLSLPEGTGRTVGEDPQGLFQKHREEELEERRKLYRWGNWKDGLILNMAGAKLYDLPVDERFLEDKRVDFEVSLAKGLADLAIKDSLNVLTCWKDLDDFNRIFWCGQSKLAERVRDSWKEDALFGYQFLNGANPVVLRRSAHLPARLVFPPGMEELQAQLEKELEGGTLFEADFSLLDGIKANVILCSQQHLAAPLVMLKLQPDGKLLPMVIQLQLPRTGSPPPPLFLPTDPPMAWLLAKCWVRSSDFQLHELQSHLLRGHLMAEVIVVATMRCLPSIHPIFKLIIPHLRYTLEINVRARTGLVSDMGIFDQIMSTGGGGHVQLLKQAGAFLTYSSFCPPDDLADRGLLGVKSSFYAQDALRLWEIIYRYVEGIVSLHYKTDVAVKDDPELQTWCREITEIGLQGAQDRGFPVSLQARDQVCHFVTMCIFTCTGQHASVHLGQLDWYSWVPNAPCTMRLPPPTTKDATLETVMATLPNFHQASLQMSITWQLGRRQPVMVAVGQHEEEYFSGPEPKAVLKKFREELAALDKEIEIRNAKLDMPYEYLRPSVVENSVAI

B1: soybean lipoxygenase-1 (sLO-1) (Glycine max) (protein)
chain: MFSAGHKIKGTVVLMPKNELEVNPDGSAVDNLNAFLGRSVSLQLISATKADAHGKGKVGKDTFLEGINTSLPTLGAGESAFNIHFEWDGSMGIPGAFYIKNYMQVEFFLKSLTLEAISNQGTIRFVCNSWVYNTKLYKSVRIFFANHTYVPSETPAPLVSYREEELKSLRGNGTGERKEYDRIYDYDVYNDLGNPDKSEKLARPVLGGSSTFPYPRRGRTGRGPTVTDPNTEKQGEVFYVPRDENLGHLKSKDALEIGTKSLSQIVQPAFESAFDLKSTPIEFHSFQDVHDLYEGGIKLPRDVISTIIPLPVIKELYRTDGQHILKFPQPHVVQVSQSAWMTDEEFAREMIAGVNPCVIRGLEEFPPKSNLDPAIYGDQSSKITADSLDLDGYTMDEALGSRRLFMLDYHDIFMPYVRQINQLNSAKTYATRTILFLREDGTLKPVAIELSLPHSAGDLSAAVSQVVLPAKEGVESTIWLLAKAYVIVNDSCYHQLMSHWLNTHAAMEPFVIATHRHLSVLHPIYKLLTPHYRNNMNINALARQSLINANGIIETTFLPSKYSVEMSSAVYKNWVFTDQALPADLIKRGVAIKDPSTPHGVRLLIEDYPYAADGLEIWAAIKTWVQEYVPLYYARDDDVKNDSELQHWWKEAVEKGHGDLKDKPWWPKLQTLEDLVEVCLIIIWIASALHAAVNFGQYPYGGLIMNRPTASRRLLPEKGTPEYEEMINNHEKAYLRTITSKLPTLISLSVIEILSTHASDEVYLGQRDNPHWTSDSKALQAFQKFGNKLKEIEEKLVRRNNDPSLQGNRLGPVQLPYTLLYPSSEEGLTFRGIPNSISI

How the values were obtained:
[1] = target: T1, soybean lipoxygenase-1 (sLO-1); experiment: Kinetic inhibition assay of sLO-1; assay type: biochemical; details: read-out: Km for linoleic acid with sLO-1; pH 10.0
[2] = target: T2, human reticulocyte 15-lipoxygenase-1 (15-hLO-1); experiment: Kinetic inhibition assay of 15-hLO-1; assay type: biochemical; details: read-out: Km with 15-hLO-1; substrate itself, 13-HPODE activator
[3] = substrate: CCCCC/C=C\C/C=C\C/C=C\C/C=C\CCCC(=O)O; experiment: Kinetic inhibition assay of sLO-1; assay type: biochemical, soybean

| Molecule | Km [1] [µM] | Km [2] [µM] | Km ([3]; other: pH 7.5, 13-HPODE activator, pH 7.5) [µM] | Km ([3]; other: pH 10.0, 13-HPODE activator, pH 10.0) [µM] |
| --- | --- | --- | --- | --- |
| CCCCC/C=C\C/C=C\CCCCCCCC(=O)O [LA, linoleic acid, reference compound] | 28 ± 5 | 6.2 ± 0.9 | – | – |
| B1 | – | – | 31.7 ± 3.5 | 15.1 ± 1.5 |
